# Like-named read-outs stand apart in the source and are kept apart here.
# What was measured:
# Drosophila melanogaster [1] = test: Anoxia tolerance of adult flies after CO2 and/or H2S pretreatment; assay type: in vivo
# Method: Basic experimental setup. Adult flies were introduced into 35 mL tubes made of glass with a gas-tight rubber stopper (Balsh tubes). This was usually accomplished by anesthetizing flies with CO2, moving groups of flies to vials with food to recover for at least 2 hours, and then transferring them into the Balsh tube. To exchange the gaseous environment in the Balsh tube, two 18 gauge needles were inserted into the rubber stopper, and gas is blown into one of the needles at 100 mL/min. To prevent dessication, gasses were humidified by bubbling through 10 mL of water before passing it through the Balsch tube. The water in the bubbler is equilibrated with the gas for at least 20 minutes before starting the experiment.
# For “stopped-flow” experiments, gas exchange proceeded for 60 minutes before sealing the tube. For “low-flow” experiments, gas flow continued throughout the experiment. CO2 was from the house source (100%), and anoxic environments were established by flushing out room air with 100% nitrogen (N2). Care was taken to prevent introduction of room air into the system while switching the atmosphere from CO2 to N2.
# After anoxic treatment, oxygen was reintroduced into the Balsh tube by flushing with house air for 20 minutes. The rubber stopper was then removed and a food vial is inverted over the top of the Balsh tubes with Parafilm. […] Viability was scored at least 18 hours after the end of anoxic treatment. After two weeks, if the food vials contained larvae and/or pupae the flies were considered to be fertile.
# humans = conditions: cited from earlier work
# rat hemorrhage model = test: Controlled lethal hemorrhage (60% blood loss) in rats treated with H2S; assay type: in vivo
# Method: After surgical implantation of catheters and recovery, blood was removed from conscious animals in 40 minutes. […] Three hours after the end of the bleed, surviving animals were given one shed-blood volume of lactated ringers solution intravenously.
# C. elegans [2] = test: Lifespan of C. elegans adapted to H2S; assay type: in vivo
# Description: Animals raised in house air were moved to H2S-containing environments at the beginning of the lifespan experiment. The lifespan of these animals is 14.8±0.3 days, which is shorter than controls that remained in house air (mean lifespan 18.2±0.4 days).
# rats = conditions: cited from earlier work
# mice in lethal hypoxia = test: Survival of H2S pre-treated mice in lethal hypoxia; assay type: in vivo, mouse; conditions: graded reduction of oxygen tension following H2S pre-treatment
# Method: FIG. 11 Survival of Mice in 5% Oxygen.
# Experiments were stopped at 60 minutes and if the animals still alive were returned to their cage.
# C. elegans [3] = test: Thermotolerance of C. elegans adapted to H2S; assay type: in vivo
# Description: A: Adapted animals survive at high temperature longer than unadapted controls. Adapted animals were exposed to high temperature in H2S as young adults.
# mice = test: Metabolic rate (CO2 production, O2 consumption) of mice with H2S and hypoxia; assay type: in vivo, mouse; conditions: Ta=13° C.
# Method: FIG. 14 Metabolic Rate of a Mouse in 5% Oxygen. […] Metabolic rate measured by CO2 output. […] At hour 6 the mouse was returned to room air and allowed to recover.
# FIG. 15 CO2 Production During Transition to Lethal Hypoxia. […] In addition, the change in CO2 production upon step-wise transition to 5% O2 for 1 hr followed by 4% O2 was measured. The percent change in CO2 production is plotted with standard error indicated.
# Relative carbon dioxide production and oxygen consumption of a mouse when pretreated and exposed to 5% O2. […] These experiments were done at Ta=13° C. so they could be compared to our previous studies. Values are the means from three animals and the error bars represent one standard deviation. p-values indicate the significance between the bars with the same symbols.
# To determine the rate of consumption of oxygen or the rate of production of carbon dioxide the biological matter is placed into a chamber that is sealed with two openings; for gas import and export. Gas (room air or other gases) is passed into the chamber at a given flow rate and out of the exit port to maintain approximately 1 atmosphere of pressure in the chamber. […]
# In addition, the change in CO2 production upon step-wise transition to 5% O2 for 1 hr followed by 4% O2 was measured.
# C. elegans [4] = test: Developmental rates, progeny and rate of egg-laying of C. elegans in H2S; assay type: in vivo
# Description: The rate of egg-laying is tightly correlated with oocyte production, an energetically expensive activity that is a sensitive readout of metabolic capacity.
# rodents and humans = conditions: 500 ppm; followed by recovery; cited from earlier work
# [5] = test system: Drosophila melanogaster embryos and larvae; test: Anoxia survival of fly embryos and larvae; assay type: in vivo
# Method: Preliminary experiments with larvae and embryos. […] After exposure to anoxia for 24 h, 7 pupae were formed from a pool of 0-19 h old embryos. However, 20 pupae were observed from a matched pool that was pretreated with CO2 for 10 min.
# Drosophila melanogaster [6] = test: Anoxia tolerance of adult flies after CO2 and/or H2S pretreatment; assay type: in vivo; conditions: bubbler water not equilibrated with N2, 13 h anoxic exposure
structure (smiles),measurement,setting,value
"O=C=O [CO, carbon dioxide]",Flies recovered,"Drosophila melanogaster [1]; treated only with CO2 for 10 min before the anoxic exposure, control experiment",11%
"[C-]#[O+] [carbon monoxide, Carbon monoxide]",Effect on exposed humans,humans; 50 ppm,no symptoms
same,Effect on exposed humans,"humans; 200 ppm, within two-three hours",slight headache
same,Effect on exposed humans,"humans; 400 ppm, within one to two hours",frontal headache
same,Effect on exposed humans,"humans; 800 ppm, within 45 minutes","dizziness, nausea, and/or convulsions"
same,Effect on an organism,"humans; around 1000 ppm, exposure for more than around 1-2 minutes",expire
"S [H2S, Hydrogen sulfide]",Complete recovery,rat hemorrhage model; 300 ppm H2S in room air from 20 min into the 40 min bleed to end of bleed,85.7%
same,Rats that survived hemorrhage and 3 hour shock period and recovered completely,"rat hemorrhage model; 300 ppm H2S, survivors/treated",6/7
same,Blood bicarbonate content ([HCO3^−]),rat hemorrhage model; End of bleed,21 ± 3 mmol/L
same,Blood bicarbonate content ([HCO3^−]),rat hemorrhage model; Pre-bleed,32 ± 3 mmol/L
same,Mean lifespan,C. elegans [2]; adapted animals in H2S (n=80),22.6 ± 1.0 days
same,Increase of maximum lifespan,C. elegans [2]; animals grown in H2S versus untreated controls,4 days
same,Lifespan,"C. elegans [2]; raised in house air, moved to H2S at the beginning of the lifespan experiment",14.8 ± 0.3 days
same,Lifespan,C. elegans [2]; sir-2.1(ok434) animals raised in H2S (n=47),20.0 ± 1.6 days
same,Effect of perinatal exposure,"rats; 20 or 50 ppm H2S, 7 hours per day from gestation through post-natal day 21",longer dendritic branches with reduced aborization of cerebellar Purkinje cells
same,Effects of repeated gas exposure,"rats; 80 ppm or greater H2S, 3 hours per day on five consecutive days (Struve et al. 2001)","Significant reductions in motor activity, water maze performance and body temperature"
same,"Behavioral toxicity, learning","rats; moderate levels (Partlo et al., 2001)",interferes with the ability of rats to learn a baited radial arm maze task
same,"Behavioral toxicity, avoidance","rats; moderate levels, immediately after the end of the exposure (Higuchi and Fukamachi)",inhibits discriminated avoidance responses
same,Effects in exposed rat pups,"rats; perinatal study, 80 ppm H2S (Dorman et al. 2000)","no neuropathological effects or altered motor activity, passive avoidance, or acoustic startle response"
same,Lowest oxygen tension survived for an hour,mice in lethal hypoxia,2.5%
same,Survival at high temperature,C. elegans [3]; adapted animals at high temperature in room air,7.3 h
same,H2S-treated animals alive when all untreated animals had died,"C. elegans [3]; average, data not shown",80%
same,Mean survival time at high temperature,"C. elegans [3]; sir-2.1(ok434) animals grown in H2S, high temperature in H2S (n=20)",9.8 ± 0.3 h
same,Mean survival time at high temperature,C. elegans [3]; unadapted animals moved to high temperature in 50 ppm H2S,2.1 h
same,Mean survival time at high temperature,"C. elegans [3]; wild-type adapted animals, high temperature in H2S (n=136)",65.5 h
same,Drop in metabolic rate,mice; 150 ppm H2S 20 min pretreatment then long exposure to 5% oxygen,over 50 fold
same,Drop in metabolic rate,"mice; H2S alone for the same period of time (80 ppm, six hours)",10 fold
same,Rate of egg-laying,"C. elegans [4]; adapted (wild-type in 50 ppm H2S), in 2% O2",4.9 ± 1.4 embryos per hour
same,Rate of egg-laying,"C. elegans [4]; adapted (wild-type in 50 ppm H2S), in 2% O2 + H2S",4.7 ± 1.2 embryos per hour
same,Rate of egg-laying,"C. elegans [4]; adapted (wild-type in 50 ppm H2S), in H2S",7.8 ± 2.0 embryos per hour
same,"embryogenesis, hours ± SEM (n)","C. elegans [4]; adapted: wild-type animals in 50 ppm H2S, median time for 2-cell embryos to hatch at room temperature",13.3 ± 0.4 (34) hours
same,"post-embryonic, hours ± SEM (n)","C. elegans [4]; adapted: wild-type animals in 50 ppm H2S, median time for starved first-stage larvae to become gravid adults",49.3 ± 0.2 (15) hours
same,Numbers of progeny,C. elegans [4]; animals raised in low H2S,221±35
same,Rate of egg-laying,"C. elegans [4]; clk-1(qm30), in 2% O2 + H2S",2.5 ± 1.0 embryos per hour
same,Rate of egg-laying,"C. elegans [4]; clk-1(qm30), in H2S",3.2 ± 1.1 embryos per hour
same,Rate of egg-laying,"C. elegans [4]; unadapted (wild-type grown in room air), in H2S, ± SD, n = 10",8.3 ± 3.0 embryos per hour
same,Rate of egg-laying,"C. elegans [4]; unadapted, in 2% O2 + H2S",4.5 ± 1.6 embryos per hour
same,Effect of exposure to extreme levels,rodents and humans,sudden collapse and unconsciousness
same,Survival of adult flies,"Drosophila melanogaster [1]; 50 ppm H2S in room air prior to anoxia, 18.5 h",25%
same,Survival of adult flies,"Drosophila melanogaster [1]; 50 ppm H2S in the CO2 pretreatment, removed as anoxia is established, 20 h",35%
same,Survival of adult flies,"Drosophila melanogaster [1]; CO2 10 min, H2S/CO2 10 min, N2/H2S 10 min, then N2, 15 h anoxic exposure, low-flow",50%
"O=C=O [CO2, carbon dioxide]",Survival of 0-24 h old embryos,[5]; 18.5 h anoxic exposure,develop to adulthood
same,Movement of larvae upon reoxygenation,"[5]; 24.5 h anoxia, only if pretreated",resume movement
same,Pupae formed from a pool of 0-19 h old embryos,"[5]; CO2 pretreatment 10 min, anoxia 24 h",20 pupae
same,Survival of adult flies,Drosophila melanogaster [6],no flies survived
same,Survival of adult flies,"Drosophila melanogaster [1]; 10 min CO2 pretreatment, 17, 22, and 24 h anoxia, low-flow, one experiment",no survival
same,Survival of adult flies,"Drosophila melanogaster [1]; CO2 10 minutes pretreatment (no H2S), 20 h anoxic exposure, low-flow",6%
same,Survival of adult flies,"Drosophila melanogaster [1]; CO2 pretreatment 30 minutes, 19 h anoxic exposure, stopped-flow",54%
same,Survival of adult flies,"Drosophila melanogaster [1]; CO2 pretreatment 90 minutes, 19 h anoxic exposure, stopped-flow",28%
same,Survival of adult flies,"Drosophila melanogaster [1]; CO2 pretreatment, anoxic exposure, then CO2 for 20 minutes immediately following",no flies survived
same,Survival of adult flies,Drosophila melanogaster [1]; CO2 without subsequent anoxic exposure,No survival
same,Effect of CO2 pretreatment in cold treatment experiments,Drosophila melanogaster [1]; flies kept at 4° C. during anoxia,did not have a noticeable difference
same,Survival versus no pretreatment,"Drosophila melanogaster [1]; low-flow, 100% CO2 10 min, trend (FIG. 9)",greater survival
same,Time of CO2 administration giving the highest fraction of surviving flies,"Drosophila melanogaster [1]; stopped-flow, 22 h anoxic exposure",0.5 to 5 min

# — patent US20080226750A1, “Methods, Compositions and Articles of Manufacture for Treating Shock and Other Adverse Conditions” (priority 2006, published 2008)
